The values below come from US20100298234A1, “Cancer therapeutic agents comprising a ligand for the neuromedin u receptor 2 (fm4) molecule as an active ingredient” (priority 2006, published 2010).

Experiment [1] has as its target T1, FM4 (Homo sapiens, UniProt Q9GZQ4, A395T/C204F).
T1 construct: using Pyrobest Taq polymerase (Takara) to clone the full-length FM4 gene; expressed in transfected cells
The experiment can be described thus: Intracellular Ca2+ concentration measurement (Fluo 4 AM) in FM4-expressing CHO cells. It is filed as cell-based. The settings on record: FM4-CHO cell line, 2.5 μM NmU, FIG. 3. The method, then: 15 μg of linearized FM4 expression vector (pMCN-FM4) obtained by digestion with PvuI was introduced into CHO cells by electroporation (Gene Pulser; BioRad) at 1.5 kV, 25 μFD. The cells were cultured in a medium containing 500 μg/mL of G418, and G418-resistant cells were picked. NmU was added to these cells, and cell lines that reacted to NmU were selected using the increase in intracellular Ca^2+ concentration as an index.
(§1) The cells were detached using trypsin, plated onto a 96-well plate (black plate for fluorescence measurement) at 2×10^4 cells/well, and after culturing overnight, they were used for intracellular calcium measurements. Measurement of the intracellular calcium concentration was performed as follows.
After removing the medium, an Fluo 4 AM solution [2% FCS, 3 μM Fluo 4 AM (Molecular PROBES) in assay buffer (2 mM HEPES, 1.5 mM probenecid in HBSS)] was added at 50 μL/well. After incubation in the dark at 37° C. for 30 minutes, the cells were washed three times in the assay buffer. Then, an assay buffer that contains 2.5 μM of NmU (Funakoshi) was added, and the intracellular Ca^2+-dependent fluorescence trace at 490-nm excitation was monitored on a plate reader for fluorimetric analysis (Fusion; Perkin Elmer).

Experiment [2] concerns the target T1, FM4. The experiment can be described thus: Intracellular Ca2+ concentration in FM4-expressing PANC1 cells (FM4-PANC1). It is filed as cell-based. The settings on record: FM4-PANC1, NmU 1 μM, FIG. 6. On the procedure: as §1
After removing the medium, an Fluo 4 AM solution [2% FCS, 3 μM Fluo 4 AM (Molecular PROBES) in assay buffer (2 mM HEPES, 1.5 mM probenecid in HBSS)] was added at 50 μL/well. After incubation in the dark at 37° C. for 30 minutes, the cells were washed three times in the assay buffer. […]
In order to confirm that the NmU signaling is transmitted into the cell in the obtained FM4-expressing PANC1 cells (FM4-PANC1), whether the addition of NmU increased the intracellular Ca^2+ concentration was analyzed. […] This confirmed that in the established FM4-PANC1 cells, NmU stimulation causes the FM4-mediated signaling to be transmitted into the cell.

Experiment [3] has as its system FM4-CHO cells. Kind of experiment: Proliferation-suppressing effect, WST-8 assay, FM4-CHO. It is filed as cell-based, Chinese hamster. Conditions: NmU 0.096 μM to 60 μM, 48 hours, FIG. 4A. The method, then: FM4-CHO cells were plated onto a 96-well plate at 2×10^3 cells/well. On the following day, NmU was added to each well at various concentrations (0.096 μM to 60 μM) and the cells were cultured. 48 Hours later, the number of viable cells were analyzed by WST-8 assay (Cell counting kit-8, Dojindo Laboratories).

A further experiment concerns PANC-1. The experiment can be described thus: Proliferation of pancreatic cancer cell line PANC-1. It counts as cell-based, human. The settings on record: PANC-1, NmU 0.096 μM to 60 μM, 72 hours, FIG. 4B. The method, then:
(§2) On the following day, NmU was added to each well at 0.096 μM to 60 μM. Seventy-two hours later, the number of cells was determined.

Another experiment deals with Capan-1. Kind of experiment: Proliferation of pancreatic cancer cell line Capan-1. It counts as cell-based, human. Conditions: Capan-1 (high FM4 gene expression), NmU 0.096 μM to 60 μM, 72 hours, FIG. 4B. The method, then:
as §2

The next experiment has as its system PANC1 cells. Kind of experiment: Soft agar colony formation assay, parent PANC1 cells. The settings on record: parent cell line PANC1 that does not express FM4, NmU 1 μM, one month, FIG. 7. It counts as cell-based, human. On the procedure:
(§3) To analyze the effect of NmU on the ability of this cell to form colonies, soft agar colony formation assay was performed. Soft agar colony formation assay was performed as follows.
(§4) Base agar (0.5% agar, 1×MEM, and 10% FCS) was added to each well of a 6-well plate at 1.5 mL/well, and then 1.5 mL/well (0.5×10^4 cells/well) of PANC1 cells or FM4-PANC1 cells in the presence or absence of NmU (1 μM) in top agar (0.35% agar, 1×MEM, and 10% FCS) was added at to each of the wells. After culturing for one month, the number of colony forming cells in the soft agar was counted under a microscope.

A further experiment concerns FM4-PANC1 cells. The experiment can be described thus: Soft agar colony formation assay, FM4-PANC1 cells. It is filed as cell-based, human. The settings on record: FM4-PANC1, NmU 1 μM, one month, FIG. 7. The method, then: as §3, §4
For experiment [4], the system named is FM4-CHO cells. The experiment can be described thus: Cell morphology of FM4-CHO cells under a microscope after NmU stimulation. The settings on record: FM4-CHO stimulated with NmU, in approximately 12 hours, FIG. 8. It is filed as cell-based, Chinese hamster. The text has this: The cell morphology of FM4-CHO cells which were forced to express FM4 was observed under a microscope.
This led to the speculation that NmU is involved in signal transduction that regulates cell adhesion and cell movement.

A further experiment relates to CHO cells. The experiment can be described thus: Wound healing assay (cell movement), parent CHO cells. Conditions: NmU 5 μM, serum-free medium, 24 hours, FIG. 9. It is filed as cell-based, Chinese hamster. On the procedure:
(§5) Next, the effect of NmU on cell movement ability was analyzed by wound healing assay. Parent cell line CHO cells and FM4-CHO cells were grown to confluency in plates, and wounded with a pipette tip to make a fixed clearance between the cells. After washing the cells twice with PBS, the cells were cultured in a serum-free culture medium in the presence or absence of NmU (5 μM). Twenty-four hours later, cells that moved into the clearance between the cells were observed and photographed under a microscope.

Experiment [5] concerns FM4-CHO cells. The experiment can be described thus: Wound healing assay (cell movement), FM4-CHO cells. It is filed as cell-based, Chinese hamster. Conditions: NmU 5 μM, serum-free medium, 24 hours, FIG. 9. The method, then:
as §5

For a further experiment, the system named is FM3. Conditions: CHO, HEK-293 and COS-7 cells forced to express FM3; cited from earlier work.
Experiment [6] deals with T2, FM4 (Homo sapiens, UniProt Q9GZQ4).
T2 construct: host or cells: CHO, HEK-293 and COS-7 cells with forced expression
T2 sequence (Q9GZQ4 whole entry): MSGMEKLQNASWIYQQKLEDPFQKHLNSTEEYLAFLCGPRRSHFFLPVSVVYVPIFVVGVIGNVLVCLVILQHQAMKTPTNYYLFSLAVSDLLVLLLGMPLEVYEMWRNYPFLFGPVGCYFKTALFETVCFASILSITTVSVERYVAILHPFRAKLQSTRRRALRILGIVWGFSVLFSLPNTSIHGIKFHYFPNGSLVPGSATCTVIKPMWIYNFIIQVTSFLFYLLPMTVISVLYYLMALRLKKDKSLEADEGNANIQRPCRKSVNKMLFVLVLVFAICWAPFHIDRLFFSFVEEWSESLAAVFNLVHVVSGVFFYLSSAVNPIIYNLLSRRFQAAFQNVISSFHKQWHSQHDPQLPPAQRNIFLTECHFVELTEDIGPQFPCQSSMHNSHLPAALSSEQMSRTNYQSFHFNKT
Conditions: CHO, HEK-293 and COS-7 cells forced to express FM4; cited from earlier work.

For experiment [7] the following is noted: administration into the cerebral ventricle; cited from earlier work.

T1 sequence (Q9GZQ4 whole entry C204F/A395T): as the sequence (Q9GZQ4 whole entry) above, with C204F, A395T counted along it

As for “NmU: biologically active peptide, endogenous ligand for FM3 and FM4; polypeptide of SEQ ID NO: 14; NmU (Funakoshi) used in the tests (FRVDEEFQSPFASQSRGYFLFRPRN; listed as Homo sapiens)”, the “intracellular Ca2+ concentration” value in the experiment with FM4 [1] is on record as “quickly increased”; with FM4 [2] it was “increase of the intracellular Ca^2+ concentration”. For the same substance, the “proliferation (number of viable cells, WST-8)” value in the experiment on FM4-CHO cells [3] is on record as “suppressed proliferation of FM4-CHO at low concentration”. The “proliferation (number of cells)” value is reported as “did not act at all on the proliferation” in the experiment with PANC-1 and “proliferation-suppressing effect of NmU was observed” with Capan-1. The results for the “colony forming ability in soft agar” value with PANC1 cells and in the experiment with FM4-PANC1 cells were “did not have any effect” and “colony formation-suppressing effect by NmU was confirmed”, respectively. The cell morphology result in the experiment on FM4-CHO cells [4] is recorded as “significant morphological alterations of the cells such as disappearance of cell protrusions”. In addition, the cell movement result in the experiment with CHO cells is listed as “did not have any effect”; with FM4-CHO cells [5], “completely inhibited”. For the same substance, the “intracellular calcium ion concentration” value in the experiment with FM3 and with FM4 [6] was “induced increase of intracellular calcium ion concentration at the nanomolar level” in each case. Moreover, in experiment [7], the food/feed intake result was “significant reduction in overnight food intake and starvation-induced feeding”.
